We go through 13 molecules from PMC9673926, “Nucleotide binding as an allosteric regulatory mechanism for Akkermansia muciniphila β-N-acetylhexosaminidase Am2136” (Gut Microbes, 2022).

The target in data set [1] is T1, Am2136 WT dialyzed (Akkermansia muciniphila, UniProt B2UPR7).
T1 construct: The coding region (residue Q20-L756) of Am2136 without signal peptide was based on UniProt; 6XHis (N); made in house; host or cells: E. coli BL21 (DE3)
Briefly: Metal ion effect on enzyme hydrolysis activity. The settings on record: for Vmax / kcat/Km: WT dialyzed + 2 mM metal ion, substrate pNP-β-GlcNAc; for effect of metal ion on Am2136 catalytic activity: 2 mM metal ion. The class given is biochemical. The method, then: The purified protein was added with the final concentration of 5 mM EDTA and incubated on ice for 20 min. Then the protein was dialyzed with the buffer solution (2 mM EDTA, 25 mM Tris, 150 mM NaCl, 5% Glycerol, pH 8.0) at 4°C for 4 h at a volume ratio of 1:350. After that, the protein was dialyzed with the EDTA-free buffer for 4 h and repeated twice.
The dialyzed protein was incubated with other metal ions on ice for 5 min. The 50 μL reaction mixture contains 2 μM protein, 0.125–4 mM p-nitrophenyl (pNP)-β-GlcNAc, 2 mM metal ions (MgCl2, CaCl2, CuCl2, ZnCl2, CoCl2), 25 mM Tris pH 8.0 and 150 mM NaCl.

Data set [2] addresses T2, Am2136 WT (Akkermansia muciniphila, UniProt B2UPR7).
T2 construct: The coding region (residue Q20-L756) of Am2136 without signal peptide was based on UniProt; 6XHis (N); made in house; host or cells: E. coli BL21 (DE3)
Put plainly: Nucleotide binding affinity by intrinsic fluorescence. The settings on record: WT dialyzed. The method, then:
The nucleotide binding ability was determined on Fluorescence Spectrometer Duetta (HORIBA) by measuring the change of peak intensity. The fluorescence was excited at 286 nm and emitted at 336 nm. And the measurement was processed under 400 V voltage with 2.5 nm excitation slit and 5 nm emission slit. […] The sample was incubated at 4°C for 5 min before testing.

Data set [3] addresses T3, Am2136 (Akkermansia muciniphila, UniProt B2UPR7).
T3 construct: The coding region (residue Q20-L756) of Am2136 without signal peptide was based on UniProt; 6XHis (N); made in house; host or cells: E. coli BL21 (DE3)
Briefly: Oligosaccharide hydrolysis, released GlcNAc by HPLC-QqQ-MS. The data set is classed as biochemical. The settings on record: 1.2 mM substrate, 4 μM Am2136, 37°C, 240 min. The method, then:
The 30 μL reaction mixture contains 1.2 mM oligosaccharides (Sigma), 4 μM proteins, 150 mM NH4Ac pH 8.0. The qualitative and quantitative analyses were performed by high-performance liquid chromatography-tandem triple quadrupole mass spectrometry (HPLC-QqQ-MS) (Agilent 1260 HPLC system and 6460 QqQ system, Agilent Technologies, USA). The separation was performed on a Chromplus C18 column (4.6 × 250 mm, 5 μm) at 25°C. The samples were isocratic eluted with 0.1% formic acid in water and acetonitrile (80:20, v/v) at a flow rate of 0.5 mL/min with an injection volume of 5 μL. The mass spectrometer was operated in the electron spray ionization mode with drying gas temperature of 300°C, N2 gas flow at 11 L/min, nebulizer pressure of 15 psi, and capillary voltage of 4000 V.
Qualitative analysis was carried out by MS2 full-scan mode, while quantitative analysis was performed by multiple reaction monitoring (MRM) in positive ionization mode. Amygdalin (IS) was used as internal standard, and the sample was prepared by adding 20 μL internal standard (116.96 μM) and 170 μL water to 10 μL reaction mixture. The ion transitions were chosen as m/z 222.0→203.9 for GlcNAc and m/z 458.1→296.0 for IS. The fragmentor voltage values of GlcNAc and IS were set to 70 and 130 V, respectively. The collision energies of GlcNAc and IS were set to 1 and 10 eV, respectively. The signal acquisition and peak integration were performed using the MassHunter Qualitative Analysis Software (Agilent, USA). The concentration of GlcNAc in each sample was determined by using the established calibration curve (y = 0.768x + 2.4873) made from the standard compound.

Substrate in data set [4]: CC(=O)N[C@H]1[C@H](Oc2ccc([N+](=O)[O-])cc2)O[C@H](CO)[C@@H](O)[C@@H]1O
Briefly: purified protein, by the assay type. The settings on record: pH 8.0; 37.0 °C.

T3 sequence (B2UPR7 20-756): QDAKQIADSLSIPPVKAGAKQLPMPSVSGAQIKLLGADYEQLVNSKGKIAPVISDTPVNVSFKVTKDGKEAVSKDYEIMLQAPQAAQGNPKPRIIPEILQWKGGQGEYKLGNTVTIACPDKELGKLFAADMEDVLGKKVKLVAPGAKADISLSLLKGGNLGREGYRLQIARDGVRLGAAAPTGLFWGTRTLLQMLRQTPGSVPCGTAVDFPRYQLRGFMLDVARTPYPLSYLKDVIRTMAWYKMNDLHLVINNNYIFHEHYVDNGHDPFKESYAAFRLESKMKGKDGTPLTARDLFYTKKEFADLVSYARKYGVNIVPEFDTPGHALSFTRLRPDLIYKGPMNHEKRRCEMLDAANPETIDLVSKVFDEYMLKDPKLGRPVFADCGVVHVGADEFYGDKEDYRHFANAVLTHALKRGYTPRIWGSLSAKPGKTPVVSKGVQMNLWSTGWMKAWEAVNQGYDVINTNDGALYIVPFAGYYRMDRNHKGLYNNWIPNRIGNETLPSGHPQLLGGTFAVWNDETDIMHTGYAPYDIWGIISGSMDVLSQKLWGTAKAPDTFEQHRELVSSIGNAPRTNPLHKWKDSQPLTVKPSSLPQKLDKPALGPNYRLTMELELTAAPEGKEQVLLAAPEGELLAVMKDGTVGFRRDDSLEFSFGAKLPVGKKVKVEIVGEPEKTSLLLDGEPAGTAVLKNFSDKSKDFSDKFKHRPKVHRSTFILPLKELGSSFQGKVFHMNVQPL
T1 sequence (B2UPR7 20-756): as above
T2 sequence (B2UPR7 20-756): as above

What is called Vmax is the rate approached at saturating substrate. By kcat/Km is commonly meant the second-order rate constant that governs catalysis at low substrate concentration. As for `[Ca+2].[Cl-].[Cl-]` [Ca^2+, CaCl2], in data set [1], the Vmax is 447 ± 14 µmol/min and the kcat/Km came out at 128000 ± 2000 M⁻¹ s⁻¹. Further, the “effect of ion on GDP binding to Am2136” value in data set [2] is recorded as “did not exhibit obvious behavioral effect on GDP binding”.

With `[Cl-].[Cl-].[Co+2]` [Co^2+, CoCl2], in data set [1], the “effect of metal ion on Am2136 catalytic activity” value (from here on “effect of metal ion”) was “significant inhibitory effects”.

Consider `[Cl][Cu][Cl]` [Cu^2+, CuCl2], for which the “effect of metal ion” value in data set [1] was “significant inhibitory effects”.

`CC(=O)N[C@H]1[C@H](O[C@@H]2C(O)O[C@H](CO)[C@@H](O)[C@@H]2O)O[C@H](CO)[C@@H](O)[C@@H]1O` (stereo partly drawn) [GlcNAc-(β1,2)Man]: the values for the GlcNAc released in data set [3] (with 1 mM GDP) and in data set [3] (without GDP) were 851.33 µM and 671 µM, respectively.

Turning to `CC(=O)N[C@H]1[C@H](OC[C@H]2O[C@@H](O[C@H]3[C@H](O)[C@@H](O)C(O)O[C@@H]3CO)[C@H](O)[C@@H](O)[C@H]2O)O[C@H](CO)[C@@H](O)[C@@H]1O` (stereo partly drawn) [GlcNAc-(β1,6)Gal-(β1,4)Glc], the figures for the GlcNAc released in data set [3] (with 1 mM GDP) and in data set [3] (without GDP) were 712.55 µM and 549 µM, respectively.

On to `CC(=O)N[C@H]1[C@@H](Oc2ccc([N+](=O)[O-])cc2)O[C@H](CO[C@@H]2O[C@H](CO)[C@@H](O)[C@H](O)[C@H]2NC(C)=O)[C@H](O)[C@@H]1O` [GlcNAc-(β1,6)GalNAc-α-pNP], for which the GlcNAc released in data set [3] (with 1 mM GDP) was 451.25 µM; in data set [3] (without GDP), 308 µM.

Regarding `COC1O[C@H](CO)[C@H](O)[C@H](O[C@@H]2O[C@H](CO)[C@@H](O)[C@H](O)[C@H]2NC(C)=O)[C@H]1O` (stereo partly drawn) [Methyl GlcNAc-(β1,3)Gal], the GlcNAc released came out at 610.53 µM in data set [3] (with 1 mM GDP) and 448 µM in data set [3] (without GDP).

As to `[Cl-].[Cl-].[Mg+2]` [Mg^2+, MgCl2], in data set [1], the Vmax worked out at 435 ± 9 µmol/min and the kcat/Km is 151000 ± 3000 M⁻¹ s⁻¹. Also, in data set [2], the “effect of ion on GDP binding to Am2136” value was “did not exhibit obvious behavioral effect on GDP binding”.

Consider `[Cl-].[Cl-].[Zn+2]` [Zn^2+, ZnCl2], for which the “effect of metal ion” value in data set [1] was “significant inhibitory effects”.

B1: R256A (Akkermansia muciniphila ATCC BAA-835; R256A) (protein)
chain: QDAKQIADSLSIPPVKAGAKQLPMPSVSGAQIKLLGADYEQLVNSKGKIAPVISDTPVNVSFKVTKDGKEAVSKDYEIMLQAPQAAQGNPKPRIIPEILQWKGGQGEYKLGNTVTIACPDKELGKLFAADMEDVLGKKVKLVAPGAKADISLSLLKGGNLGREGYRLQIARDGVRLGAAAPTGLFWGTRTLLQMLRQTPGSVPCGTAVDFPRYQLRGFMLDVARTPYPLSYLKDVIATMAWYKMNDLHLVINNNYIFHEHYVDNGHDPFKESYAAFRLESKMKGKDGTPLTARDLFYTKKEFADLVSYARKYGVNIVPEFDTPGHALSFTRLRPDLIYKGPMNHEKRRCEMLDAANPETIDLVSKVFDEYMLKDPKLGRPVFADCGVVHVGADEFYGDKEDYRHFANAVLTHALKRGYTPRIWGSLSAKPGKTPVVSKGVQMNLWSTGWMKAWEAVNQGYDVINTNDGALYIVPFAGYYRMDRNHKGLYNNWIPNRIGNETLPSGHPQLLGGTFAVWNDETDIMHTGYAPYDIWGIISGSMDVLSQKLWGTAKAPDTFEQHRELVSSIGNAPRTNPLHKWKDSQPLTVKPSSLPQKLDKPALGPNYRLTMELELTAAPEGKEQVLLAAPEGELLAVMKDGTVGFRRDDSLEFSFGAKLPVGKKVKVEIVGEPEKTSLLLDGEPAGTAVLKNFSDKSKDFSDKFKHRPKVHRSTFILPLKELGSSFQGKVFHMNVQPL
One may read the Km as the substrate concentration at which the rate is half of its maximum. For the molecule B1, the Km in data set [4] is 1490 ± 60 µM.

B2: P595A+H597A (Akkermansia muciniphila ATCC BAA-835; H597A/P595A) (protein)
chain: QDAKQIADSLSIPPVKAGAKQLPMPSVSGAQIKLLGADYEQLVNSKGKIAPVISDTPVNVSFKVTKDGKEAVSKDYEIMLQAPQAAQGNPKPRIIPEILQWKGGQGEYKLGNTVTIACPDKELGKLFAADMEDVLGKKVKLVAPGAKADISLSLLKGGNLGREGYRLQIARDGVRLGAAAPTGLFWGTRTLLQMLRQTPGSVPCGTAVDFPRYQLRGFMLDVARTPYPLSYLKDVIRTMAWYKMNDLHLVINNNYIFHEHYVDNGHDPFKESYAAFRLESKMKGKDGTPLTARDLFYTKKEFADLVSYARKYGVNIVPEFDTPGHALSFTRLRPDLIYKGPMNHEKRRCEMLDAANPETIDLVSKVFDEYMLKDPKLGRPVFADCGVVHVGADEFYGDKEDYRHFANAVLTHALKRGYTPRIWGSLSAKPGKTPVVSKGVQMNLWSTGWMKAWEAVNQGYDVINTNDGALYIVPFAGYYRMDRNHKGLYNNWIPNRIGNETLPSGHPQLLGGTFAVWNDETDIMHTGYAPYDIWGIISGSMDVLSQKLWGTAKAPDTFEQHRELVSSIGNAPRTNALAKWKDSQPLTVKPSSLPQKLDKPALGPNYRLTMELELTAAPEGKEQVLLAAPEGELLAVMKDGTVGFRRDDSLEFSFGAKLPVGKKVKVEIVGEPEKTSLLLDGEPAGTAVLKNFSDKSKDFSDKFKHRPKVHRSTFILPLKELGSSFQGKVFHMNVQPL
As for B2, the Michaelis constant (Km) in data set [4] was 1580 ± 70 µM.

B3: R592A (Akkermansia muciniphila ATCC BAA-835; R592A) (protein)
chain: QDAKQIADSLSIPPVKAGAKQLPMPSVSGAQIKLLGADYEQLVNSKGKIAPVISDTPVNVSFKVTKDGKEAVSKDYEIMLQAPQAAQGNPKPRIIPEILQWKGGQGEYKLGNTVTIACPDKELGKLFAADMEDVLGKKVKLVAPGAKADISLSLLKGGNLGREGYRLQIARDGVRLGAAAPTGLFWGTRTLLQMLRQTPGSVPCGTAVDFPRYQLRGFMLDVARTPYPLSYLKDVIRTMAWYKMNDLHLVINNNYIFHEHYVDNGHDPFKESYAAFRLESKMKGKDGTPLTARDLFYTKKEFADLVSYARKYGVNIVPEFDTPGHALSFTRLRPDLIYKGPMNHEKRRCEMLDAANPETIDLVSKVFDEYMLKDPKLGRPVFADCGVVHVGADEFYGDKEDYRHFANAVLTHALKRGYTPRIWGSLSAKPGKTPVVSKGVQMNLWSTGWMKAWEAVNQGYDVINTNDGALYIVPFAGYYRMDRNHKGLYNNWIPNRIGNETLPSGHPQLLGGTFAVWNDETDIMHTGYAPYDIWGIISGSMDVLSQKLWGTAKAPDTFEQHRELVSSIGNAPATNPLHKWKDSQPLTVKPSSLPQKLDKPALGPNYRLTMELELTAAPEGKEQVLLAAPEGELLAVMKDGTVGFRRDDSLEFSFGAKLPVGKKVKVEIVGEPEKTSLLLDGEPAGTAVLKNFSDKSKDFSDKFKHRPKVHRSTFILPLKELGSSFQGKVFHMNVQPL
For the molecule B3, the Km in data set [4] was 1480 ± 60 µM.

B4: Y327F+Y331F (Akkermansia muciniphila ATCC BAA-835; Y327F/Y331F) (protein)
chain: QDAKQIADSLSIPPVKAGAKQLPMPSVSGAQIKLLGADYEQLVNSKGKIAPVISDTPVNVSFKVTKDGKEAVSKDYEIMLQAPQAAQGNPKPRIIPEILQWKGGQGEYKLGNTVTIACPDKELGKLFAADMEDVLGKKVKLVAPGAKADISLSLLKGGNLGREGYRLQIARDGVRLGAAAPTGLFWGTRTLLQMLRQTPGSVPCGTAVDFPRYQLRGFMLDVARTPYPLSYLKDVIRTMAWYKMNDLHLVINNNYIFHEHYVDNGHDPFKESYAAFRLESKMKGKDGTPLTARDLFYTKKEFADLVSFARKFGVNIVPEFDTPGHALSFTRLRPDLIYKGPMNHEKRRCEMLDAANPETIDLVSKVFDEYMLKDPKLGRPVFADCGVVHVGADEFYGDKEDYRHFANAVLTHALKRGYTPRIWGSLSAKPGKTPVVSKGVQMNLWSTGWMKAWEAVNQGYDVINTNDGALYIVPFAGYYRMDRNHKGLYNNWIPNRIGNETLPSGHPQLLGGTFAVWNDETDIMHTGYAPYDIWGIISGSMDVLSQKLWGTAKAPDTFEQHRELVSSIGNAPRTNPLHKWKDSQPLTVKPSSLPQKLDKPALGPNYRLTMELELTAAPEGKEQVLLAAPEGELLAVMKDGTVGFRRDDSLEFSFGAKLPVGKKVKVEIVGEPEKTSLLLDGEPAGTAVLKNFSDKSKDFSDKFKHRPKVHRSTFILPLKELGSSFQGKVFHMNVQPL
With B4, the Km in data set [4] turned out to be 1420 ± 60 µM.
